# Assay results taken from patent publication US20050176149A1, “Process for the reversible functional inactivation of the mismatch repair system” (priority 2002, published 2005).
# Entries after “also recorded” stand apart in the source; their conditions may differ.
# Assays:
# [1] = system: interspecies S. typhimurium Hfr×E. coli F^− conjugational recombination; assay: interspecies S. typhimurium Hfr×E. coli F^− conjugational recombination (Thr^+ recombinants per Hfr donor); assay type: cell-based
# Description: (§1) FIG. 1: Influence of 2-aminopurine (2-AP) on the efficiency of intraspecies E. coli Hfr×E. coli F^− and interspecies S. typhimurium Hfr×E. coli F^− conjugational recombination. Recipient E. coli strains were either mutS^+ (A, C) or mutS^− (B, D). The recombination frequencies for the selected marker (Thr^+) are expressed per Hfr donor after subtracting unmated revertants. Each number represents the mean (± standard error) of at least three independent experiments.
# The conjugation experiments have been performed under the previously described conditions (Rayssiguier et al., 1989). The overnight cultures of donor strains (2-4×10^9 cells/ml) comprising the DNA sequence to be introduced and recipient strains comprising the autologous DNA sequences were diluted 50-fold into fresh LB medium, with or without 2-aminopurine (Sigma), and grown with gentle shaking (about 150 rpm) in order to obtain 2-4×10^8 cells/ml. In order to obtain the required concentration of cells, about 3 hours of incubation is required. When cells were treated with 2-AP, the growth was slightly slower (the incubation was about 30 minutes longer) compared to the growth without 2-AP. The 2-AP treatment of the donor and recipient strains before mating is preferred as 2-AP must be incorporated in the DNA during replication in order to saturate mismatch repair. The doses of 2-AP tested were: 25 μg/ml, 50 μg/ml, 75 μg/ml, 100 μg/ml, 300 μg/ml and 600 μg/ml. The effect of 2-AP treatment was already significant when 50 μg/ml of 2-AP was used. […] Mating mixtures were prepared by mixing together Hfr and F^− bacteria in a 1:1 ratio. This mixture was filtered through a sterile 0.45-μm-pore size nitrocellulose filter (2.5 cm diameter), using vacuum filtration equipment (MILLIPORE). The filters with mating mixtures i.e. mixtures with cells comprising autologous and introduced nucleotide sequences were incubated on fresh LB agar plate (with or without 2-aminopurine) prewarmed at 37° C. […] For this purpose, the M9 medium [supplemented with arginine, histidine, leucine, proline and tryptophane (100 μg/ml each), thiamine (30 μg/ml), glucose (0.4%), and nalidixic acid (40 μg/ml) to counter-select the Hfr donor cells] was used. Threonine was not added to the media in order to select Thr^+ recombinants. Recombinants were scored after incubation of 48 hours at 37° C.
# The recombination between these two bacterial species, which have about 16% divergence in their genomic sequences, is very low (10^−8-10^−7; FIG. 1A) compared to intraspecies recombination (about 10^−1; FIG. 1C). Inactivation of the mutS or mutL gene in recipient cells according to the present invention using 2-AP increases about 10^3-10^4-fold the frequency of interspecies recombination (FIG. 1B, FIG. 2A and 2B).
# [2] = system: intraspecies E. coli Hfr×E. coli F^− conjugational recombination; assay: intraspecies E. coli Hfr×E. coli F^− conjugational recombination (Thr^+ recombinants per Hfr donor); assay type: cell-based; conditions: mutS^+ (wildtype) or mutS^− background
# Description: as §1
# The conjugation experiments have been performed under the previously described conditions (Rayssiguier et al., 1989). The overnight cultures of donor strains (2-4×10^9 cells/ml) comprising the DNA sequence to be introduced and recipient strains comprising the autologous DNA sequences were diluted 50-fold into fresh LB medium, with or without 2-aminopurine (Sigma), and grown with gentle shaking (about 150 rpm) in order to obtain 2-4×10^8 cells/ml. In order to obtain the required concentration of cells, about 3 hours of incubation is required. When cells were treated with 2-AP, the growth was slightly slower (the incubation was about 30 minutes longer) compared to the growth without 2-AP. The 2-AP treatment of the donor and recipient strains before mating is preferred as 2-AP must be incorporated in the DNA during replication in order to saturate mismatch repair. […] Recombinants were scored after incubation of 48 hours at 37° C.
# MutL protein = target: T1, MutL protein (Escherichia coli, UniProt P23367); assay: identification of the mismatch-repair system component saturated or inhibited by 2-AP (complementation with mutS^+ or mutL^+ plasmids); assay type: cell-based, E. coli; conditions: 2-AP 300 mg/ml (so in the source); plasmids carrying mutS^+ or mutL^+
# T1 construct: endogenous in cells; host or cells: E. coli K12 AB1157 derivatives (MX4, MX5); In MX5 (mutL218::Tn10), MutL comes from plasmid pMQ339 (mutL+)
# Method: FIG. 2: Identification of the mismatch-repair system component, which is saturated or inhibited with 2-aminopurine (2-AP) treatment. Recipient E. coli strains were either […] (A, B) or mutL^− (C, D). The mismatch repair deficiency was complemented with plasmids carrying mutS^+ (A, B) or mutL^+ genes (C, D). The dose of 2-AP used in these experiments was always 300 mg/ml. The recombination frequencies for the selected marker (Thr^+) are expressed per Hfr donor after subtracting unmated revertants. Each number represents the mean (± standard error) of at least three independent experiments.
# Plasmids carrying mutS^+ or mutL^+ genes were indroduced by electrotransformation (using BIO RAD micro pulser apparatus) in MX4 and MX5 strains, respectively.
# The conjugation experiments have been performed under the previously described conditions (Rayssiguier et al., 1989). The overnight cultures of donor strains (2-4×10^9 cells/ml) comprising the DNA sequence to be introduced and recipient strains comprising the autologous DNA sequences were diluted 50-fold into fresh LB medium, with or without 2-aminopurine (Sigma), and grown with gentle shaking (about 150 rpm) in order to obtain 2-4×10^8 cells/ml. In order to obtain the required concentration of cells, about 3 hours of incubation is required. […] Recombinants were scored after incubation of 48 hours at 37° C.
# [3] = system: donor and recipient strains; assay: growth of donor and recipient strains in LB medium with 2-AP; assay type: cell-based, E. coli; conditions: 37° C., compared to growth without 2-AP (about 3 hours)
# Method: The conjugation experiments have been performed under the previously described conditions (Rayssiguier et al., 1989). The overnight cultures of donor strains (2-4×10^9 cells/ml) comprising the DNA sequence to be introduced and recipient strains comprising the autologous DNA sequences were diluted 50-fold into fresh LB medium, with or without 2-aminopurine (Sigma), and grown with gentle shaking (about 150 rpm) in order to obtain 2-4×10^8 cells/ml. In order to obtain the required concentration of cells, about 3 hours of incubation is required. When cells were treated with 2-AP, the growth was slightly slower (the incubation was about 30 minutes longer) compared to the growth without 2-AP. The 2-AP treatment of the donor and recipient strains before mating is preferred as 2-AP must be incorporated in the DNA during replication in order to saturate mismatch repair. The doses of 2-AP tested were: 25 μg/ml, 50 μg/ml, 75 μg/ml, 100 μg/ml, 300 μg/ml and 600 μg/ml. The effect of 2-AP treatment was already significant when 50 μg/ml of 2-AP was used. […] Mating mixtures were prepared by mixing together Hfr and F^− bacteria in a 1:1 ratio. This mixture was filtered through a sterile 0.45-μm-pore size nitrocellulose filter (2.5 cm diameter), using vacuum filtration equipment (MILLIPORE). […] Recombinants were scored after incubation of 48 hours at 37° C.
# T1 sequence (P23367 whole entry): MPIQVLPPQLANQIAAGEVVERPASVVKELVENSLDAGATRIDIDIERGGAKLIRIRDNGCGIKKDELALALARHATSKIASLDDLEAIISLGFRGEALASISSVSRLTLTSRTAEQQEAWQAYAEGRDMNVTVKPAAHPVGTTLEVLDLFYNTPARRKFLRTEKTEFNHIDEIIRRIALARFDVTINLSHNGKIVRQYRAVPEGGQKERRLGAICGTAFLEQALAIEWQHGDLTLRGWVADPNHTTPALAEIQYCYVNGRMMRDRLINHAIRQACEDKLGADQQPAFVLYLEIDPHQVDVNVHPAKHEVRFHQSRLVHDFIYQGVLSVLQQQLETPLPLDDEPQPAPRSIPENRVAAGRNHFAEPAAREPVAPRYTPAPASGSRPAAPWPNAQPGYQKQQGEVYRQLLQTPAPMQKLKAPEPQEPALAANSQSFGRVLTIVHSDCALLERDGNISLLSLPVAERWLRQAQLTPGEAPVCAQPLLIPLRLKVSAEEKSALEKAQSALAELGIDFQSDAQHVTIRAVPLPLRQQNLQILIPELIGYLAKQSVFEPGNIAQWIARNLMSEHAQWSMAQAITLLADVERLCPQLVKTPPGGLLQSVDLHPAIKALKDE
smiles,measurement,setting,value
"Nc1ncc2[nH]cnc2n1 [2-AP, 2-aminopurine]",2-AP dose at which the effect on recombination was already significant,[1]; doses tested 25-600 μg/ml,50 µg/mL
same,2-AP dose of maximal effect on recombination efficiency,"[1]; doses tested 25-600 μg/ml, further increases did not increase recombination efficiency further",100 µg/mL
same,2-AP effect on interspecies recombination in mutS^− recipient background,[1]; mutS^− recipient (FIG. 1B) compared with wildtype (FIG. 1A),not as pronounced as in a wildtype background
same,2-AP concentration range in which an increase of recombination frequency is seen,"[1]; wild-type recipient cells, in particular at and above 75 μg/ml",50 to 600 µg/mL
same,effect of 2-AP on frequency of intraspecies recombination,[2],not considerably increased; also recorded: not modified
same,component of the MRS titrated or inactivated by the 2-AP treatment,MutL protein,MutL protein
same,additional incubation time needed to reach 2-4×10^8 cells/ml (slower growth) with 2-AP,[3],about 30 minutes
